Laboratory results: PMC9328652, “A novel class of fast‐acting antimalarial agents: Substituted 15‐membered azalides” (British Journal of Pharmacology, 2020)
pIC50: −log10 of the molar value. In brackets after ≈: the same amount, converted by molar mass. Where two headings read alike, the source gives them in different places.

Key:
[1] = tested on: Plasmodium falciparum K1 (CQ,PY); test: [3H]hypoxanthine incorporation antimalarial assay, strain K1; assay type: cell-based; conditions: K1, 72 h, read-out: IC50 K1 (CQ,PY)
Experimental: (§1) The activity of the test compounds against P. falciparum in vitro was determined using the tritiated hypoxanthine incorporation assay of Desjardins et al. and additionally modified by Milhous and Chulay (Chulay, Haynes, & Diggs, [1983]; Milhous, Weatherly, Bowdre, & Desjardins, [1985]).
(§2) Compounds were dissolved in DMSO and subsequently diluted in the culture medium (RPMI 1640) supplemented with 10% v/v human plasma. Serial 1:2 drug dilutions were prepared in triplicate in microtitre plates. Culture medium supplemented with 10% v/v human plasma and type A Rhesus positive human erythrocytes infected with P. falciparum strains was added to yield a haematocrit of 3% and a parasitaemia of 0.25–0.55%. The plates were incubated at 37°C in a modular incubator flushed with a mixture of 5% oxygen, 3% carbon dioxide, and 92% nitrogen for 48 h, and then [^3H]hypoxanthine was added to give a final concentration of 12.5–16 μCi·ml^−1. After incubation for additional 24 h, particulate matter was harvested on fibreglass strips and hypoxanthine incorporation determined by scintillation spectrophotometry. […] Delayed death experiments were performed by this standard method but extending the incubation time with the drug up to 96 h.

[2] = tested on: Plasmodium falciparum FCR3 (CQ,AT); test: [3H]hypoxanthine incorporation antimalarial assay, strain FCR3; assay type: cell-based; conditions: FCR3, 72 h, read-out: IC50 FCR3 (CQ,AT)
Experimental: as §1, §2

[3] = tested on: Plasmodium falciparum T9/94 (CQ); test: [3H]hypoxanthine incorporation antimalarial assay, strain T9/94; assay type: cell-based; conditions: 72 h, read-out: IC50 T9/94 (CQ)
Experimental: as §1, §2

[4] = tested on: Plasmodium falciparum 3D7A (sensitive); design: method as in Pesic et al. ([2012]); conditions: 72 h of incubation; ref Pesic et al. ([2012]); cited from earlier work
[5] = tested on: Plasmodium falciparum W2 (chloroquine/pyrimethamine resistant); design: method as in Pesic et al. ([2012]); conditions: 72 h of incubation; ref Pesic et al. ([2012]); cited from earlier work
[6] = Pharmacokinetics in P. falciparum infected and uninfected humanized mice; conditions: oral 10 mg·kg^−1, mean (SD); for Cmax / Tmax: NODscidβ2m^−/−, mouse, in vivo, po, 10 mg/kg; for Cmax: C max, blood; for Tmax: t max
Experimental: For pharmacokinetic (PK) studies in mice, animals were dosed either by intravenous (i.v.) or oral (p.o.) route.
(§3) For studies performed in Swiss albino CD‐1 mice (Harlan Laboratories, Spain), in order to obtain simultaneous blood and plasma profiles and blood‐to‐plasma (B/P) ratio, PK was performed using terminal sampling of N = 3 animals per time point and data evaluated using composite analysis. For studies performed in P. falciparum infected and non‐infected NODscidβ2m^−/− mice (Charles River Laboratories, France), only whole blood was obtained by serial sampling of N = 3 animals using tail puncture.
(§4) For analysis of whole blood samples, 25 μl of fresh blood were mixed with 25 μl of saponin solution (0.1% in water) and immediately frozen on dry ice. Plasma was obtained by centrifugation of fresh blood at 2,500 g for 10 min. Both blood and plasma samples were stored frozen at −80°C until analysis.
(§5) Diluted blood and plasma samples were processed under standard liquid–liquid extraction procedures using acetonitrile containing internal standard (clarithromycin, 100 ng·ml^−1) and analysed by LC–MS/MS in positive ion mode with electrospray. Samples were assayed for parent compound using a Sciex API 4000 and Sciex API‐2000 Triple Quadrupole Mass Spectrometer (Sciex, Division of MDS Inc., Toronto, Canada), against a series of matrix matched calibration curve standards, using multiple reaction monitoring (MRM) at the specific transitions for each compound. Non‐compartmental analysis was performed using WinNonlin, version 4.1 (Pharsight, Mountain View, CA), and the main pharmacokinetic parameters were estimated.

[7] = tested on: P. falciparum 3D7^0087/N9; test: P. falciparum murine model (humanized mice), 4-day test; assay type: in vivo, Plasmodium falciparum
Experimental: The in vivo efficacy evaluation of the compounds was performed using a P. falciparum murine model of malaria in non‐myelodepleted NOD. Cg‐Prkdc^ scid –β2m^ tm1Unc ‐scid IL2R_null (NODscidβ2m^−/−) mice engrafted with human erythrocytes as described previously (Angulo‐Barturen et al., [2008]; Jimenez‐Diaz et al., [2005]; Jimenez‐Diaz et al., [2009]; Jimenez‐Diaz et al., [2009]), as this model enables testing of P. falciparum strains with high infectious burden. Briefly, groups of three mice engrafted with human erythrocytes were infected with 20 × 10^6 of P. falciparum 3D7^0087/N9‐infected erythrocytes/mouse by intravenous route. The mice were randomly assigned to their corresponding experimental groups. The treatment of oral doses QD for 4 days started at day 3 after infection. Parasitaemia was measured at days 3, 5, and 7 post‐infection. The therapeutic efficacy was expressed as the dose (mg·kg^−1) that reduced parasitaemia in peripheral blood of mice at day 7 after infection by 90% (ED90) with respect to vehicle‐treated mice. Chloroquine was included as quality control for each in vivo assay. Efficacy is expressed as the daily dose (ED90), or equivalent exposure (AUCED90), administered to mice necessary to reduce parasitaemia at day 7 by 90% with respect to vehicle‐treated mice. The ED90 is estimated by fitting a four‐decade logistic equation for the log10 [parasitaemia at day 7] versus the log10 [dose] using GraphPad Prism 5.01 (GraphPad Software Inc., San Diego, CA).

[8] = tested on: haem polymerization; test: Cell-free haem polymerization assay; assay type: biochemical; conditions: for pIC50: cell‐free, N = 2
Experimental: Experiments were performed according to Tripathi, Khan, Walker, and […] ([2004]). Briefly, a solution of sodium acetate containing mono-oleoyl glycol and the corresponding inhibitor at different concentrations is placed in 1.5-ml reaction tubes. […] Multiple washing steps with Tris/SDS and bicarbonate, to remove monomeric haem and haem aggregates, allow quantification of de novo formed β-haematin.

[9] = tested on: Plasmodium falciparum 7G8 (CQ, PY); test: [3H]hypoxanthine incorporation antimalarial assay, strain 7G8; assay type: cell-based; conditions: 7G8, 72 h, read-out: IC50 7G8 (CQ, PY)
Experimental: as §1, §2

[10] = tested on: Plasmodium falciparum Dd2 (CQ,Q,PY,S); test: microbe, parasite or virus in culture; assay type: cell-based; conditions: for pIC50: Plasmodium falciparum
Experimental: as §1, §2

[11] = tested on: Plasmodium falciparum V1/S (CQ,PY); test: microbe, parasite or virus in culture; assay type: cell-based; conditions: 72 h, read-out: IC50 V1/S (CQ,PY)
Experimental: as §1, §2

[12] = tested on: Plasmodium falciparum W2 (chloroquine/pyrimethamine resistant); test: [3H]hypoxanthine incorporation antimalarial assay, strain W2; assay type: cell-based; conditions: W2, 72 h, read-out: Plasmodium falciparum IC50 W2
Experimental: as §1, §2

[13] = tested on: HepG2 cells; test: Cytotoxicity assay (MTS); assay type: cell-based, human; conditions: 24 h, N = 2
Experimental: The detailed protocol for cytotoxicity measurement is described elsewhere (Verbanac et al., [2005]). In brief, HepG2 cells were maintained in complete RPMI 1640 medium supplemented with 10% FBS at 37°C in a 5% CO2 atmosphere. Each culture in the 96‐well plates contained 50,000 cells which were exposed to serial dilutions (1:2) of compounds initially dissolved in DMSO and subsequently diluted in supplemented RPMI 1640 medium. Compounds were tested in duplicates, and plates were incubated for 24 h at 37°C in 5% CO2. The cytotoxicity assay was performed using the MTS CellTiter 96 AQueous One Solution Cell Proliferation Assay (Promega, USA). After the addition of MTS reagent and 2 h of incubation at 37°C in 5% CO2, the absorbance at 490 nm was recorded and Tox50 determined based on the obtained response curves.

[14] = Pharmacokinetic studies in CD-1 mice
Experimental: For pharmacokinetic (PK) studies in mice, animals were dosed either by intravenous (i.v.) or oral (p.o.) route. For i.v. administration, the dosing volume was 10 ml·kg^−1 for a total dose of 12.5 mg·kg^−1, and for p.o. administration, the dosing volume was 20 ml·kg^−1 for a total dose of 12.5 mg·kg^−1. Dosing solutions were prepared in 100% saline ([…]) both for i.v. and p.o. administration for all compounds with the exception of compound 4 for which dosing solutions were prepared in PBS with 5% Cremophor‐EL (Fluka). Following i.v. dosing, blood samples were collected at 5 and 15 min, 1, 3, 6, 8, 24, and 48 h post‐dose. Following oral dosing, blood samples were collected at 15 and 30 min, 1, 2, 4, 6, 8, 24, and 48 h post‐dose.
as §3, §4, §5

[15] = tested on: H. influenzae ATCC49247; test: Antibacterial screen, broth microdilution; assay type: cell-based; conditions: Haemophilus influenzae
Experimental: (§6) Antibacterial activity of compounds was determined by a standard broth microdilution method (Clinical Laboratory Standard Institute CLSI, [2009]), except that for Streptococcus strains lysed blood was substituted with 5% horse serum in the testing medium. […] The activities are expressed as minimum inhibitory concentrations (MICs) in units of μg·ml^−1. […] The organisms tested represented macrolide sensitive Gram‐positive pathogens that are mainly targeted by macrolide antibiotics. Tested streptococci were clinical isolates Streptococcus pneumoniae SP030 and Streptococcus pyogenes 3565 from internal strain collection, and other strains were obtained from ATCC bioresource centre, Staphylococcus aureus ATCC13709, Haemophilus influenzae ATCC49247, and Moraxella catarrhalis ATCC23246. Double dilutions of tested compounds were prepared using TECAN Genesis 150. Bacteria were grown on appropriate agar plates (Becton Dickinson, USA)—Columbia agar with 5% sheep blood for streptococci and M. catarrhalis, Mueller‐Hinton chocolate agar for H. influenzae , and Mueller‐Hinton agar for staphylococci.

[16] = tested on: S. pneumoniae SP030; test: Antibacterial screen, broth microdilution; assay type: cell-based; conditions: Streptococcus pneumoniae
Experimental: as §6

[17] = tested on: S. aureus ATCC13709; test: Antibacterial screen, broth microdilution; assay type: cell-based; conditions: Staphylococcus aureus
Experimental: as §6

[18] = tested on: S. pyogenes 3565; test: Antibacterial screen, broth microdilution; assay type: cell-based; conditions: Streptococcus pyogenes
Experimental: as §6

[19] = tested on: Plasmodium falciparum 3D7A (sensitive); test: [3H]hypoxanthine incorporation antimalarial assay, strain 3D7A; assay type: cell-based; conditions: 72 h of incubation, N = 3
Experimental: as §1, §2

[20] = tested on: M. catarrhalis ATCC23246; test: Antibacterial screen, broth microdilution; assay type: cell-based, Moraxella catarrhalis
Experimental: as §6

[21] = tested on: Plasmodium falciparum Dd2(AZ^R); test: [3H]hypoxanthine incorporation antimalarial assay, azithromycin-resistant mutant Dd2(AZ^R); assay type: cell-based
Experimental: as §1, §2

[22] = Swiss albino CD-1, mouse, whole blood, iv, 12.5 mg/kg

In the case of `CCN(CC)CCCC(C)Nc1ccnc2cc(Cl)ccc12` (stereo not drawn) [Chloroquine, reference compound], the pIC50 [1] was 6.50, the pIC50 [2] was 6.86 and the pIC50 [3] was 6.75. The pIC50 [4] was 7.80, the pIC50 [5] was 6.37 and the Cmax ([6]; infected (I) humanized mice) was 210 ng/mL. It also gave a Cmax ([6]; uninfected (U) humanized mice) of 72.3 ng/mL, a Tmax ([6]; infected (I) humanized mice) of 2.33 h and a Tmax ([6]; uninfected (U) humanized mice) of 1.92 h. The “DNAUC(0–24)” value ([6]; infected (I) humanized mice) was 200 (13) ng*h·ml^−1·mg^−1·kg^−1, the “DNAUC(0–24)” value ([6]; uninfected (U) humanized mice) was 63 (23) ng*h·ml^−1·mg^−1·kg^−1 and the “mice with no detectable parasitaemia at day 35” value ([7]; 100 mg·kg^−1, groups of three mice) was “all mice”. The “AUCED90 (daily molar exposure for 90% parasitaemia reduction)” value ([7]; humanized mice, oral) was 3.1 μM·h^−1·day^−1, the pIC50 [8] was 4.97 to 5.42 and the pIC50 [9] was 6.71. For the same molecule, the pIC50 ([10]; DD2, 72 h, read-out: IC50 Dd2 (CQ,Q,PY,S)) was 6.45 and the pIC50 [11] was 6.41.

For `CC[C@H]1OC(=O)[C@H](C)[C@@H](O[C@H]2C[C@@](C)(OC)[C@@H](O)[C@H](C)O2)[C@H](C)[C@@H](O[C@@H]2O[C@H](C)C[C@H](N(C)C(C)=O)[C@H]2O)[C@](C)(O)C[C@@H](C)CN(CCCNC(=O)Nc2ccc3ccccc3c2)[C@H](C)[C@@H](O)[C@]1(C)O` [Compound 4], the pIC50 [12] was 7.72, the “Tox50 HepG2” value [13] was 38 µM and the “B/P (ratio of AUC0−t in whole blood and plasma)” value ([14]; CD‐1 mice, after oral administration) was 0.4. The “DNAUCPO (AUC0−t divided by the dose)” value ([14]; CD‐1 mice, blood, oral gavage 12.5 mg·kg^−1) was 0.3 ng·kg·h/mL/mg, the half-life ([14]; Swiss albino CD-1, mouse, whole blood, intravenous, 12.5 mg/kg) was 3.76 h and the Vd [14, 22] was 0.708 L/kg. The clearance [14, 22] was 14.8 mL/min/kg, the bioavailability ([14]; Swiss albino CD-1, mouse, whole blood, po, 12.5 mg/kg, F, CD‐1 mice, 12.5 mg·kg^−1 i.v. and p.o.) was < 1% and the MIC [15] was > 64 µg/mL. For the same molecule, the MIC [16] was > 64 µg/mL, the MIC [17] was > 64 µg/mL and the MIC [18] was > 64 µg/mL. For the same molecule, the pIC50 [19] was 7.89, the pIC50 [8] was 4.33 and the “weaker potency in haem polymerization” value ([8]; compared with compounds 1, 2, 3 and chloroquine) was ~ 10 fold. For the same molecule, the “activity against M. catarrhalis (in words)” value [20] was “only minor activity”, the MIC ([20]; Moraxella catarrhalis, ATCC23246, broth microdilution) was 32 µg/mL (≈ 32.3 µM) and the pIC50 ([21]; DD2, 48 h, read-out: IC50 Dd2(AZ^R) 48 h) was 7.17. For the same molecule, the pIC50 ([21]; DD2, 96 h, read-out: IC50 Dd2(AZ^R) 96 h) was 7.28, the Delayed death phenotype ([10]; Dd2 and Dd2(AZ^R), 48 versus 96 h) was “No” and the pIC50 ([10]; DD2, 48 h, read-out: IC50 Dd2 48 h) was 7.19. The pIC50 ([10]; DD2, 96 h, read-out: IC50 Dd2 96 h) was 7.15.
